Experimental data: patent US11746111B2, “Siderophore conjugated pyrazolidinones, and analogues thereof” (YALE UNIVERSITY, priority 2018, dated 2023)
In brackets after ≈: the same amount, converted by molar mass. Where two headings read alike, the source gives them in different places.

What was measured:
[1] = system: E. coli clinical isolates; assay: Microdilution broth MIC, E. coli clinical isolates (Table 1); format: cell-based; conditions: Escherichia coli
Description: (§1) Microdilution Broth Minimum Inhibitory Concentrations (MICs)
(§2) MICs were performed in triplicate in cation adjusted Mueller-Hinton (MH) broth 30 according to CLSI guidelines. Firstly, overnight cultures of E. coli and K. pneumoniae clinical isolates were inoculated into 5 ml MH broth to OD600=0.1 and grown to OD600=0.224 (approximately 1-2×10^8 CFU/ml). These cultures were diluted (3 μl+4997 μl MH) and 100 μl inoculated into each well of a 96-well plate containing 100 μl of serial dilutions of compound 26 (YU253434), ampicillin, ceftazidime, or imipenem. The plates were placed in a 37° C. incubator for 18-20 hours and wells checked for growth.

[2] = system: K. pneumoniae clinical isolates; assay: Microdilution broth MIC, K. pneumoniae clinical isolates (Table 1); format: cell-based; conditions: Klebsiella pneumoniae
Description: as §1, §2

[3] = E. coli 35218, TEM-1, read-out: MIC
[4] = E. coli LC12, CTX-M-1 grp(15), read-out: MIC
[5] = E. coli LC15, CTX-M-9 group, CTX-M-1 grp(15)
[6] = E. coli LC38, CTX-M-1 grp(15), PB AmpC (ACT/MIR)
[7] = E. coli LC41, TEM (238S), PB AmpC (ACT/MIR), CTX-M-1 grp(15)
[8] = E. coli LC77, TEM, KPC, read-out: MIC
[9] = E. coli LC81, SHV (238S + 240K), read-out: MIC
[10] = E. coli LC91, CTX-M-1 grp(15), CMY (group II), read-out: MIC
[11] = E. coli LC98, CMY (group II), read-out: MIC
[12] = E. coli LC109, CTX-M-9 group, CMY (group II)
[13] = E. coli LC111, TEM (164S), read-out: MIC
[14] = E. coli LC136, SHV (WT + 238S), read-out: MIC
[15] = K. pneumoniae KB390 Quale, TEM-30, TEM-1, KPC-2, SHV-12, read-out: MIC
[16] = K. pneumoniae LC56, CTX-M-1 grp(15), read-out: MIC
[17] = K. pneumoniae LC102, SHV-1 (WT + 238S), read-out: MIC
[18] = K. pneumoniae Rush23, CTX-M-9 group, read-out: MIC
[19] = K. pneumoniae VA-184, KPC-2, SHV-11, SHV-12, read-out: MIC
[20] = K. pneumoniae VA-267, KPC-3, TEM-1, SHV-11, SHV-12, read-out: MIC
[21] = K. pneumoniae VA-357, KPC-2, SHV-11, read-out: MIC
[22] = K. pneumoniae VA-368, KPC-2, TEM-1, SHV-5, SHV-68, read-out: MIC
[23] = K. pneumoniae VA-384, KPC-2, TEM-1, SHV-11, SHV-12, SHV-14, read-out: MIC
[24] = K. pneumoniae VA-391, KPC-3, TEM-1, SHV-11, SHV-12, SHV-77, read-out: MIC
[25] = K. pneumoniae VA-398, KPC-3, TEM-1, SHV-11, SHV-12, SHV-27, read-out: MIC
[26] = K. pneumoniae VA-400, KPC-2, TEM-1, SHV-11, SHV-12, read-out: MIC
[27] = K. pneumoniae VA-406, KPC-2, TEM-1, SHV-11, SHV-12, read-out: MIC
[28] = K. pneumoniae VA-410, KPC-3, TEM-1, SHV-11, read-out: MIC
[29] = BAA202, E. coli BAA-202, SHV-1, read-out: MIC
[30] = E. coli Rush24, CMY (group II), read-out: MIC
[31] = K. pneumoniae 7000063, β-lactamase SHV-18, read-out: MIC
[32] = K. pneumoniae LC40, CTX-M-1 grp(15), TEM (164S), read-out: MIC
[33] = K. pneumoniae LC121, SHV-1 (WT + 238S + 240K), read-out: MIC

SMILES	MIC [1, 3]	MIC ([1]; E. coli LC4, TEM, SHV-12)	MIC [1, 4]	MIC [1, 5]	MIC ([1]; E. coli LC33, CTX-M-9 group)	MIC [1, 6]	MIC [1, 7]	MIC [1, 8]	MIC [1, 9]	MIC [1, 10]	MIC [1, 11]	MIC [1, 12]	MIC [1, 13]	MIC [1, 14]	MIC [2, 15]	MIC [2, 16]	MIC [2, 17]	MIC [2, 18]	MIC [2, 22]	MIC [2, 25]	other results
CC1(C)S[C@@H]2[C@H](NC(=O)[C@H](N)c3ccccc3)C(=O)N2[C@H]1C(=O)O [Ampicillin]	256 µg/mL (≈ 733 µM)	> 2050 µg/mL	2050 µg/mL (≈ 5860 µM)	1020 µg/mL (≈ 2930 µM)	512 µg/mL (≈ 1470 µM)	512 µg/mL (≈ 1470 µM)	512 µg/mL (≈ 1470 µM)	2050 µg/mL (≈ 5860 µM)	2050 µg/mL	2050 µg/mL (≈ 5860 µM)	2050 µg/mL (≈ 5860 µM)	1020 µg/mL (≈ 2930 µM)	1020 µg/mL (≈ 2930 µM)	512 µg/mL	> 2050 µg/mL	> 2050 µg/mL	> 2050 µg/mL	> 2050 µg/mL	> 2050 µg/mL	> 2050 µg/mL	MIC ([1]; BAA202, E. coli BAA-202, SHV-1): > 2050 µg/mL; MIC ([1]; E. coli Rush24, CMY (group II)): > 2050 µg/mL; MIC ([2]; K. pneumoniae 7000063, β-lactamase SHV-18): 1020 µg/mL (≈ 2930 µM); MIC ([2]; K. pneumoniae LC40, CTX-M-1 grp(15), TEM (164S)): 512 µg/mL (≈ 1470 µM); MIC ([2]; K. pneumoniae LC121, SHV-1 (WT + 238S + 240K)): 1020 µg/mL; MIC [2, 19]: > 2050 µg/mL; MIC [2, 20]: > 2050 µg/mL; MIC [2, 21]: > 2050 µg/mL; MIC [2, 23]: > 2050 µg/mL; MIC [2, 24]: > 2050 µg/mL; MIC [2, 26]: > 2050 µg/mL; MIC [2, 27]: > 2050 µg/mL; MIC [2, 28]: > 2050 µg/mL
CC(C)(O/N=C(\C(=O)N[C@@H]1C(=O)N2C(C(=O)[O-])=C(C[n+]3ccccc3)CS[C@H]12)c1csc(N)n1)C(=O)O [Ceftazidime]	< 1 µg/mL	256 µg/mL (≈ 468 µM)	> 1020 µg/mL					16 µg/mL (≈ 29.3 µM)	128 µg/mL	16 µg/mL (≈ 29.3 µM)	256 µg/mL (≈ 468 µM)		2 µg/mL (≈ 3.66 µM)	< 1 µg/mL		16 µg/mL (≈ 29.3 µM)	4 µg/mL	2 µg/mL (≈ 3.66 µM)	16 µg/mL (≈ 29.3 µM)	32 µg/mL (≈ 58.5 µM)	MIC [1, 29]: 16 µg/mL (≈ 29.3 µM); MIC ([1]; E. coli LC15, CTX-M-9 group, CTX-M-1 grp(15), read-out: MIC): < 1 µg/mL; MIC ([1]; E. coli LC33, CTX-M-9 group, read-out: MIC): 4 µg/mL (≈ 7.32 µM); MIC ([1]; E. coli LC38, CTX-M-1 grp(15), PB AmpC (ACT/MIR), read-out: MIC): < 1 µg/mL; MIC ([1]; E. coli LC41, TEM (238S), PB AmpC (ACT/MIR), CTX-M-1 grp(15), read-out: MIC): < 1 µg/mL; MIC ([1]; E. coli LC109, CTX-M-9 group, CMY (group II), read-out: MIC): 32 µg/mL (≈ 58.5 µM); MIC [1, 30]: 256 µg/mL (≈ 468 µM); MIC [2, 31]: 16 µg/mL (≈ 29.3 µM); MIC ([2]; K. pneumoniae KB390 Quale, TEM-30, TEM-1, KPC-2, SHV-12): 512 µg/mL (≈ 937 µM); MIC [2, 32]: < 1 µg/mL; MIC [2, 33]: 16 µg/mL; MIC ([2]; K. pneumoniae VA-184, KPC-2, SHV-11, SHV-12): 256 µg/mL (≈ 468 µM); MIC ([2]; K. pneumoniae VA-267, KPC-3, TEM-1, SHV-11, SHV-12): 512 µg/mL (≈ 937 µM); MIC ([2]; K. pneumoniae VA-357, KPC-2, SHV-11): 128 µg/mL (≈ 234 µM); MIC ([2]; K. pneumoniae VA-384, KPC-2, TEM-1, SHV-11, SHV-12, SHV-14): 256 µg/mL (≈ 468 µM); MIC ([2]; K. pneumoniae VA-391, KPC-3, TEM-1, SHV-11, SHV-12, SHV-77): 256 µg/mL (≈ 468 µM); MIC ([2]; K. pneumoniae VA-400, KPC-2, TEM-1, SHV-11, SHV-12): 256 µg/mL (≈ 468 µM); MIC ([2]; K. pneumoniae VA-406, KPC-2, TEM-1, SHV-11, SHV-12): 256 µg/mL (≈ 468 µM); MIC ([2]; K. pneumoniae VA-410, KPC-3, TEM-1, SHV-11): 128 µg/mL (≈ 234 µM)
C[C@@H](O)[C@H]1C(=O)N2C(C(=O)O)=C(SCCN=CN)C[C@H]12 [Imipenem]		< 0.125 µg/mL		< 0.125 µg/mL	< 0.125 µg/mL	< 0.125 µg/mL	< 0.125 µg/mL	2 µg/mL (≈ 6.68 µM)	< 0.125 µg/mL		< 0.125 µg/mL	< 0.125 µg/mL	< 0.125 µg/mL	< 0.125 µg/mL	4 µg/mL (≈ 13.4 µM)	0.5 µg/mL (≈ 1.67 µM)	< 0.125 µg/mL	< 0.125 µg/mL	1 µg/mL (≈ 3.34 µM)	1 µg/mL (≈ 3.34 µM)	MIC [1, 29]: 0.25 µg/mL (≈ 0.835 µM); MIC ([1]; E. coli 35218, TEM-1): < 0.125 µg/mL; MIC ([1]; E. coli LC12, CTX-M-1 grp(15)): 128 µg/mL (≈ 428 µM); MIC ([1]; E. coli LC91, CTX-M-1 grp(15), CMY (group II)): < 0.125 µg/mL; MIC [1, 30]: 0.25 µg/mL (≈ 0.835 µM); MIC [2, 31]: < 0.125 µg/mL; MIC [2, 32]: 0.25 µg/mL (≈ 0.835 µM); MIC [2, 33]: < 0.125 µg/mL; MIC [2, 19]: 8 µg/mL (≈ 26.7 µM); MIC [2, 20]: 4 µg/mL (≈ 13.4 µM); MIC [2, 21]: 8 µg/mL (≈ 26.7 µM); MIC [2, 23]: 32 µg/mL (≈ 107 µM); MIC [2, 24]: 4 µg/mL (≈ 13.4 µM); MIC [2, 26]: 4 µg/mL (≈ 13.4 µM); MIC [2, 27]: > 128 µg/mL; MIC [2, 28]: 2 µg/mL (≈ 6.68 µM)
